From ChEMBL document CHEMBL1201862, “PubChem BioAssay data set” (2004)
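96-well plates; 48 h exposure; 5 concentrations. Endpoints by linear interpolation between flanking doses. Not reached: highest tested concentration assigned. The concentration for 50% growth inhibition is given as GI50.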 The source made the active and inactive calls. Cut-off read from the data, not from the text of the source: active = GI50 up to about 1.1 µM and inactive = higher.

Assays:
Test in all cases: NCI-60 cell line screen, 48 h
[1] = system: IGROV-1
[2] = system: Malme-3M
[3] = system: UACC-62
[4] = system: SF-295
[5] = system: RXF 393
[6] = system: OVCAR-4
[7] = system: SR
[8] = system: KM12
[9] = system: U-251
[10] = system: K562
[11] = system: NCI-H460
[12] = system: BT-549
[13] = system: M14
[14] = system: DU-145
[15] = system: SK-MEL-28
[16] = system: SNB-75
[17] = system: OVCAR-5
[18] = system: UO-31
[19] = system: MCF7
[20] = system: HL-60

| Structure (SMILES) | GI50 [1] | GI50 [2] | GI50 [3] | GI50 [4] | GI50 [5] | GI50 [6] | GI50 [7] | GI50 [8] | GI50 [9] | GI50 [10] | GI50 [11] | GI50 [12] | GI50 [13] | GI50 [14] | GI50 [15] | GI50 [16] | GI50 [17] | GI50 [18] | GI50 [19] | GI50 [20] |
| --- | --- | --- | --- | --- | --- | --- | --- | --- | --- | --- | --- | --- | --- | --- | --- | --- | --- | --- | --- | --- |
| O=c1ssc2c1Nc1c(ssc1=O)S2 | 13.2 µM (inactive) | 5.9 µM (inactive) | 14 µM (inactive) | 27.7 µM (inactive) | 4.42 µM (inactive) | 14.4 µM (inactive) | 1.96 µM (inactive) | 14.4 µM (inactive) | 16.4 µM (inactive) | 8 µM (inactive) | 17.3 µM (inactive) | 25.3 µM (inactive) | 11.7 µM (inactive) | 13.4 µM (inactive) | 18.5 µM (inactive) | 16.5 µM (inactive) | 17 µM (inactive) | 11.4 µM (inactive) | 16.4 µM (inactive) | 4.48 µM (inactive) |
| COC(=O)C(Cc1ccccc1)NC(=O)C(CCCNC(=N)N)NC(=O)OCc1ccccc1 (stereo not given) | > 100 µM (inactive) | > 100 µM (inactive) | > 100 µM (inactive) | > 100 µM (inactive) | > 100 µM (inactive) | > 100 µM (inactive) | > 100 µM (inactive) | > 100 µM (inactive) | > 100 µM (inactive) | > 100 µM (inactive) | > 100 µM (inactive) | > 100 µM (inactive) | > 100 µM (inactive) | > 100 µM (inactive) | > 100 µM (inactive) | > 100 µM (inactive) | > 100 µM (inactive) | > 100 µM (inactive) | > 100 µM (inactive) | > 100 µM (inactive) |
| CC(=O)Oc1ccc2c(c1)c1c(=O)oc(N(C)C)nc1n2Cc1ccccc1 | > 95.1 µM (inactive) | 47.9 µM (inactive) | 28.4 µM (inactive) | 47.9 µM (inactive) | 52.5 µM (inactive) | 57.9 µM (inactive) | 43.1 µM (inactive) | 56.6 µM (inactive) | 39 µM (inactive) | 39.4 µM (inactive) | 52.2 µM (inactive) | 37.2 µM (inactive) | > 78.7 µM (inactive) | > 100 µM (inactive) | > 100 µM (inactive) | > 60.3 µM (inactive) | > 100 µM (inactive) | 10.8 µM (inactive) | 25.2 µM (inactive) | 23.6 µM (inactive) |
| CC(C)(C)OC(=O)N1CC(CCl)c2ccc(O)cc21 (stereo not given) | 3.84 µM (inactive) | 1.64 µM (inactive) | 2.01 µM (inactive) | 3.65 µM (inactive) | 0.693 µM (active) | 0.267 µM (active) | 1.45 µM (inactive) | 2.1 µM (inactive) | 3.15 µM (inactive) | 2.87 µM (inactive) | 2.67 µM (inactive) | 1.97 µM (inactive) | 1.72 µM (inactive) | 0.589 µM (active) | 2.09 µM (inactive) | 1.39 µM (inactive) | 3.27 µM (inactive) | 2.29 µM (inactive) | 0.753 µM (active) | 1.87 µM (inactive) |
| COCOC1/C=C/CCCCC(=O)C(C)C#CC1 (stereo not given) | 3.65 µM (inactive) | 1.98 µM (inactive) | 2.4 µM (inactive) | 16.6 µM (inactive) | 3.06 µM (inactive) | 10.2 µM (inactive) | 2.74 µM (inactive) | 7.4 µM (inactive) | 14.4 µM (inactive) | 2.97 µM (inactive) | 7.13 µM (inactive) | 6.97 µM (inactive) | 3.72 µM (inactive) | 12.8 µM (inactive) | 12.4 µM (inactive) | 12.9 µM (inactive) | 12.8 µM (inactive) | 5.7 µM (inactive) | 3.89 µM (inactive) | 1.71 µM (inactive) |
| CCOC(=O)c1cc(C2(O)CCN(Cc3ccccc3)C2=O)c(-c2cc(C)no2)[nH]1 (stereo not given) | 46.7 µM (inactive) | > 100 µM (inactive) | 47.8 µM (inactive) | 25.6 µM (inactive) | 13.3 µM (inactive) | 30.3 µM (inactive) | 27.3 µM (inactive) | 37.8 µM (inactive) | 44.7 µM (inactive) | 27 µM (inactive) | 32.4 µM (inactive) | 66.2 µM (inactive) | 55 µM (inactive) | 88.9 µM (inactive) | 59.6 µM (inactive) | 26.6 µM (inactive) | 61.4 µM (inactive) | 32.1 µM (inactive) | 47.4 µM (inactive) | 15.3 µM (inactive) |
| S=C1CSc2c(ccc3ccccc23)N1 | > 100 µM (inactive) | > 100 µM (inactive) | > 100 µM (inactive) | > 100 µM (inactive) | 35.9 µM (inactive) | > 100 µM (inactive) | > 100 µM (inactive) | > 100 µM (inactive) | > 100 µM (inactive) | > 100 µM (inactive) | > 100 µM (inactive) | > 100 µM (inactive) | > 100 µM (inactive) | > 100 µM (inactive) | > 100 µM (inactive) | > 100 µM (inactive) | > 100 µM (inactive) | > 100 µM (inactive) | > 100 µM (inactive) | > 100 µM (inactive) |
| C=CCN1C(=O)/C(=C/c2ccc(OC)cc2)N=C1SC/C=C/C | > 100 µM (inactive) | 34.8 µM (inactive) | 42.8 µM (inactive) | 41.3 µM (inactive) | 16.6 µM (inactive) | 37.7 µM (inactive) | 17.3 µM (inactive) | 28.8 µM (inactive) | 35.1 µM (inactive) | 42.5 µM (inactive) | 61.9 µM (inactive) | 39.7 µM (inactive) | 54.7 µM (inactive) | 80 µM (inactive) | 87.7 µM (inactive) | 31.2 µM (inactive) | > 100 µM (inactive) | 32.1 µM (inactive) | 32.1 µM (inactive) | 20 µM (inactive) |
| Cc1cccc2c1CC1(Cc3ccccc3C1=O)C2=O (stereo not given) | > 100 µM (inactive) | > 100 µM (inactive) | 75.7 µM (inactive) | > 100 µM (inactive) | > 100 µM (inactive) | > 100 µM (inactive) | > 100 µM (inactive) | > 100 µM (inactive) | > 100 µM (inactive) | > 100 µM (inactive) | > 100 µM (inactive) | 24.7 µM (inactive) | > 100 µM (inactive) | > 100 µM (inactive) | > 100 µM (inactive) | 77.4 µM (inactive) | > 100 µM (inactive) | > 100 µM (inactive) | > 100 µM (inactive) | > 100 µM (inactive) |
| S=C(N/N=C(/c1ccccc1)c1ccccn1)Nc1ccccc1Cl | < 0.0105 µM (active) | 0.0681 µM (active) | 0.101 µM (active) | 0.356 µM (active) | 0.124 µM (active) | 0.879 µM (active) | < 0.0189 µM (active) | 0.0649 µM (active) | 0.0158 µM (active) | < 0.215 µM (active) | 0.101 µM (active) | 3.3 µM (inactive) | < 0.0224 µM (active) | 2.31 µM (inactive) | 1.92 µM (inactive) | 6.64 µM (inactive) | 0.0243 µM (active) | 0.163 µM (active) | < 0.01 µM (active) | < 0.0865 µM (active) |
| COc1ccc(NC(/C(C(=O)c2ccccc2)=C(\O)C(=O)/C=C(\O)c2ccccc2)c2ccc(OC)cc2)cc1 (stereo not given) | 35 µM (inactive) | 21.2 µM (inactive) | 52.4 µM (inactive) | 33 µM (inactive) | 37.1 µM (inactive) | 30.5 µM (inactive) | 31.6 µM (inactive) | 30.9 µM (inactive) | 38.9 µM (inactive) | 44.3 µM (inactive) | 43.6 µM (inactive) | 71.6 µM (inactive) | 23.2 µM (inactive) | 41.6 µM (inactive) | 32.9 µM (inactive) | 17.8 µM (inactive) | > 100 µM (inactive) | 53.6 µM (inactive) | 39.5 µM (inactive) | 34.1 µM (inactive) |
| C=C(C(=O)O[C@H]1C(=O)C2=C(C)CCC3C(=C)C(=O)O[C@@H]3C2[C@]1(C)O)C1CC[C@]2(C)CCCC(=C)[C@H]2C1 (stereo not given in full) | 4.62 µM (inactive) | 8.83 µM (inactive) | 1.9 µM (inactive) | 15.5 µM (inactive) | 0.0246 µM (active) | 5.36 µM (inactive) | 7.4 µM (inactive) | 6.85 µM (inactive) | 4.94 µM (inactive) | 6.11 µM (inactive) | 3.16 µM (inactive) | 5.04 µM (inactive) | 7.62 µM (inactive) | 4.72 µM (inactive) | 5.92 µM (inactive) | 0.327 µM (active) | 17.7 µM (inactive) | 6.34 µM (inactive) | 3.32 µM (inactive) | 2 µM (inactive) |
| COc1ccc(/C(=N/O)c2ccccc2-c2nc3ccccc3c(=O)n2-c2ccc(S(=O)(=O)Nc3ncccn3)cc2)cc1C | 17.8 µM (inactive) | > 10 µM (inactive) | 12.1 µM (inactive) | 12.9 µM (inactive) | 11.1 µM (inactive) | 17.9 µM (inactive) | 15.3 µM (inactive) | 18.1 µM (inactive) | 11.8 µM (inactive) | 12.2 µM (inactive) | 15.6 µM (inactive) | 17.6 µM (inactive) | 17.1 µM (inactive) | 21.1 µM (inactive) | 14.9 µM (inactive) | 14.2 µM (inactive) | 24.5 µM (inactive) | 19.6 µM (inactive) | 13.2 µM (inactive) | 11.8 µM (inactive) |
| Cc1csc2c(P(=O)(OC(C)C)OC(C)C)c(-c3ccccc3)cn12 | 15.4 µM (inactive) | 19.9 µM (inactive) | 6.62 µM (inactive) | 16.9 µM (inactive) | 17.5 µM (inactive) | 17.5 µM (inactive) | 16.6 µM (inactive) | 16.8 µM (inactive) | 16 µM (inactive) | 17.6 µM (inactive) | 16.5 µM (inactive) | 18.8 µM (inactive) | 18.4 µM (inactive) | 18.5 µM (inactive) | 17.7 µM (inactive) | 14.5 µM (inactive) | 14.6 µM (inactive) | 15.3 µM (inactive) | 17.7 µM (inactive) | 19 µM (inactive) |
